“Also recorded” adds a separate entry of the source. Where two headings read alike, the source gives them in different places.

One assay has as its system JMML cells. Briefly: inhibition of JMML spontaneous CFU-GM colony formation. To be noted: Homo sapiens.
For a further assay, the system named is HL-60 cells. Nature of the assay: retinoid induction of differentiation of HL-60 cells (NBT). In kind it is cell-based. To be noted: Homo sapiens, HL-60, 96 h; 4-day induction of differentiation; read-out: ED50 (nM) HL-60. As to the method:
(§1) Human leukemia cell line HL-60 and NB4 were used for measuring the ability of retinoids to induce terminal differentiation. Both cell lines are predominantly promyelocytes and are induced by retinoic acid to mature to cells with many characteristics of mature granulocytes. The induction of this differentiation is the basis for assaying one of the biological activities of retinoic acid analogues. For the differentiation assay, HL-60 or NB4 cells were grown in nutrient medium with fetal bovine serum as detailed by Breitman (15).
(§2) The percentage of cells that gained this marker was measured microscopically. The percentage of positive cells was then plotted as a function of the retinoid concentration to determine ED50 and ED30 values used in the formation of isoboles.

The target in assay [1] is T1, RARβ (Homo sapiens, UniProt P10826).
T1 construct: expressed in transfected cells; host or cells: CV-1 cells
T1 sequence (P10826 1-455): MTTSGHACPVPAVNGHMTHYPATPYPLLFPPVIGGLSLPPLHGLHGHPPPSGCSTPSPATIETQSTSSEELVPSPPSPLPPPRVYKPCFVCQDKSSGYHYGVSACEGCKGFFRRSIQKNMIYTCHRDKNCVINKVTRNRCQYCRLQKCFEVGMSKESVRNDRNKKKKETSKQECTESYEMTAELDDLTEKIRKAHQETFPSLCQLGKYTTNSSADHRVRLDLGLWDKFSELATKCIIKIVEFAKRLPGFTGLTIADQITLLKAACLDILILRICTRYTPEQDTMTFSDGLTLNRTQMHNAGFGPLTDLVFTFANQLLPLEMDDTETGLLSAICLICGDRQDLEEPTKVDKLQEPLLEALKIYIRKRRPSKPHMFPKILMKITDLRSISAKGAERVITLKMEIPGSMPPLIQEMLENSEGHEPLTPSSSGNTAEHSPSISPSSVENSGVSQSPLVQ
The following applies: taken from Alam et al (9); cited from earlier work.

The target of assay [2] is T2, RARα (Homo sapiens, UniProt P10276).
T2 sequence (P10276 1-462): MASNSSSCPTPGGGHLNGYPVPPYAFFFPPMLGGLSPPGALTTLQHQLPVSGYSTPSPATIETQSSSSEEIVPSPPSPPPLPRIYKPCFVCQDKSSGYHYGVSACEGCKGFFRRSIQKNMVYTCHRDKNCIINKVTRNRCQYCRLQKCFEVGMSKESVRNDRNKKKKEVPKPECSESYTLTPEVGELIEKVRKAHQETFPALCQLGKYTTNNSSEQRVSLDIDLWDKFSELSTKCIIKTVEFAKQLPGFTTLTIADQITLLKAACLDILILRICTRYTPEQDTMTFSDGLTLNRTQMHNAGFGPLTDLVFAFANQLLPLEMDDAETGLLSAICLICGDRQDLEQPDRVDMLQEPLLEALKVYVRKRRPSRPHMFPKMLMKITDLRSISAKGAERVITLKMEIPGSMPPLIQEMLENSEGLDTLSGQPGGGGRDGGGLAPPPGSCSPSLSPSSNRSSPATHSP
The following applies: taken from Alam et al (9); cited from earlier work.

For assay [3], the target named is T3, RXRα (Homo sapiens, UniProt P19793). To be noted: taken from Alam et al (9); cited from earlier work.
The target of assay [4] is T2, RARα. Nature of the assay: cell-based. As to the method: (§3) These assays were performed in CV-1 cells with the RAR or RXR gene and the chloramphenicol acetyltransferase (CAT) reporter gene containing TREpal with a thymidine kinase promoter [(TREpal)2 -tk-CAT]. Twenty-four hours after transfection, cells were treated with a single dose of retinoid and the cell extracts were assayed for b-galactosidase and CAT activity. The antagonistic effects of UAB30 retinoids on the transcription of RAR-α were also determined in CV-1 cells. The methods are nearly identical to those used to perform transcriptional assays. These studies utilized the CAT reporter gene [(TREpal)2 -tk-CAT]. […] After 24 hours, cells were harvested and the transcriptional effects were measured in relative CAT activity, after correction with β-galactosidase activity for transfection efficiency. […] Experiments were performed in triplicate and the data were averaged.
(§4) UAB30 isomers were evaluated in assays which measures their functional activity within cells to induce RARα-, RARβ-, and RARγ-mediated transcriptional activity. CV-1 cells were transiently transfected with DNA plasmid from the appropriate RAR subtype and (TREpal)2 -tk-CAT (9, 19).

Another assay concerns the target T4, RARα/RXRα (Homo sapiens, UniProt P10276+P19793).
T4 sequence (P10276 1-462): T2 sequence (P10276 1-462)
T4 sequence (P19793 1-462): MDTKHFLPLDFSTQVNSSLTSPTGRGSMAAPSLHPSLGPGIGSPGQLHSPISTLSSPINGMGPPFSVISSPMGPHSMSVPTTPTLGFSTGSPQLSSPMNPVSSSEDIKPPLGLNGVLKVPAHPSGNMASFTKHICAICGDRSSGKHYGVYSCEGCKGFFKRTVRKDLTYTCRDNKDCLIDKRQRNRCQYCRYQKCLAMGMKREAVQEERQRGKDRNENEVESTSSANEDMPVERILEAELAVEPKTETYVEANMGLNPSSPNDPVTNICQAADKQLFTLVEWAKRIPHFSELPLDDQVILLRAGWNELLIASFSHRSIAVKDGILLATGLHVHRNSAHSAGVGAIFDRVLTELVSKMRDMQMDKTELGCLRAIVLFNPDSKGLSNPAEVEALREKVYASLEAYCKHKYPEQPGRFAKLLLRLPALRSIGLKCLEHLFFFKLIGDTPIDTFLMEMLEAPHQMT
Nature of the assay: cell-based. As to the method:
as §3

The target of assay [5] is T5, RARγ (Homo sapiens, UniProt P13631).
T5 sequence (P13631 1-454): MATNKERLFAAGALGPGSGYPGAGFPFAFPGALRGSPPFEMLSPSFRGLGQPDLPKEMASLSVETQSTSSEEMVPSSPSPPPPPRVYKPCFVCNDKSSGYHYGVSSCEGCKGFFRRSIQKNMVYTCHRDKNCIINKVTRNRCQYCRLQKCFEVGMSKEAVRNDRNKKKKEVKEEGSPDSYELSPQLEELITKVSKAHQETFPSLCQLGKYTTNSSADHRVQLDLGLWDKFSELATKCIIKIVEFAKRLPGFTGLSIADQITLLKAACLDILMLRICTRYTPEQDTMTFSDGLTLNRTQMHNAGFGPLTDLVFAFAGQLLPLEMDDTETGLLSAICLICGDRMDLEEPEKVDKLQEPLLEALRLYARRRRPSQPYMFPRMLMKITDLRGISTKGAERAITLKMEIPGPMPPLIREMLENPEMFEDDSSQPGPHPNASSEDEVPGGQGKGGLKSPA
Nature of the assay: RARγ-mediated transcriptional activation in CV-1 cells. In kind it is cell-based. As to the method: as §3, §4

Assay [6] deals with T3, RXRα. Briefly: RXRα homodimer-mediated transcriptional activation in CV-1 cells. In kind it is cell-based. As to the method:
as §3

The target in assay [7] is T5, RARγ. To be noted: taken from Alam et al (9); cited from earlier work.
The target of assay [8] is T1, RARβ. Nature of the assay: RARβ-mediated transcriptional activation in CV-1 cells. The format is cell-based. As to the method: as §3, §4
Another assay has as its system NB4 cells. Nature of the assay: retinoid induction of differentiation of NB4 cells (NBT). To be noted: for EC50: NB-4, 96 h, read-out: ED50 (nM) NB4. The format is cell-based, Human. On the procedure:
NB4 cells were obtained from Dr. Waxman after he received them from Dr. M. Lanotte. […] The cell were grown at 37° C. in a humidified atmosphere of 5% CO2 in air. Cell density was estimated on an electronic particle counter (Coulter electronic, Hialeah, Fla.) and cell viability with trypan bleu dye exclusion.
as §1, §2

Assay [9] has as its target T2, RARα. Briefly: nuclear receptor radiolabeled competition binding, RARα. On the procedure:
(§5) For active retinoids, IC50 values were determined by titration with varying concentrations of UAB retinoids.

Assay [10] relates to mouse skin papilloma. Briefly: mouse skin antipapilloma assay. The following applies: 45.9 nmol dose.
Protocol: The mouse skin antipapilloma assay measured the ED50 values for retinoid tumor inhibition on the dorsal skin of mice. The inhibition of mouse skin papilloma by retinoids was performed according to a modification of the procedure developed by Verma and Boutwell (14) as reported previously by Muccio et al. (8).
The UAB30 retinoids were evaluated next for their activity in preventing the chemical induction of papillomas on mouse skin (14).
Assay [11] concerns the target T1, RARβ. Nature of the assay: nuclear receptor radiolabeled competition binding, RARβ. As to the method: as §5
Assay [12] concerns the target T5, RARγ. Nature of the assay: nuclear receptor radiolabeled competition binding, RARγ. As to the method:
as §5

Another assay concerns RARs. Briefly: binding to RARs (subtypes stated together in text). As to the method: as §5
Assay [13] has as its system mouse skin papilloma. The following applies: 45.9 nmol dose; ref (8); cited from earlier work.
Assay [14] relates to juvenile myelomonocytic leukemia (JMML). To be noted: children with JMML; cited from earlier work.
Setting [15] is: read-out: normalized percent inhibition of CFU-GM colony growth, patient J84 (%).
Setting [16] is: read-out: normalized percent inhibition of CFU-GM colony growth, patient J83 (%).
Where [17] appears, read: read-out: normalized percent inhibition of CFU-GM colony growth, patient J83 (%), 10^-6 M.
Where [18] appears, read: read-out: normalized percent inhibition of CFU-GM colony growth, patient J83 (%), 10^-7 M.
Where [19] appears, read: read-out: normalized percent inhibition of CFU-GM colony growth, patient J84 (%), 10^-6 M.

Consider `CCC1=C(C(C)C)/C(=C/C(C)=C/C=C/C(C)=C\C(=O)O)CCC1` [(13Z)-UAB8], for which, in the assay on JMML cells (read-out: normalized percent inhibition of CFU-GM colony growth, patient J43 (%)), the inhibition at 1 µM amounted to 80%. For the same compound, in the assay with JMML cells (setting [15]), the inhibition at 0.01 µM was determined as 0%. The inhibition at 0.1 µM with JMML cells (setting [15]) was 18%. Further, the EC50 with HL-60 cells is more than 10000 nM; at RARα [4] it was 0.051 µM; at RARα/RXRα it was 0.45 µM; at RARγ [5], 42 nM; on RXRα [6], more than 2 µM. For the same compound, the IC50 at RARβ [1] was 371 nM; at RARα [2], 900 nM; at RXRα [3], more than 1000 nM; on RARγ [7], 708 nM.
`CCC1=C(C(C)C)/C(=C/C(C)=C\C=C\C(C)=C\C(=O)O)CCC1` [(9Z)-UAB8]: the EC50 was more than 2000 nM at RARβ [8], more than 1 µM on RARα [4], more than 2 µM on RARα/RXRα and 190 nM at RARγ [5]. Further, the EC30 in the assay on NB4 cells (Homo sapiens, NB-4, 72 h, retinoid alone, 3 days, read-out: ED30 NB4 cell differentiation) was more than 3000 µM. Besides, the 50% inhibitory concentration (IC50) on RARα [9], on RARβ [11] and at RARγ [12] was more than 1000 nM each time. Further, the “prevention of papilloma (tumor) formation” value (“prevention of papilloma” below) in the assay on mouse skin papilloma [10] is listed as 54%.
For the compound `CCC1=C(C(C)C)/C(=C/C(C)=C\C=C\C(C)=C/C(=O)O)CCC1` [(9Z, 13Z)-UAB8], the EC50 in the assay with HL-60 cells is more than 10000 nM; in the assay on NB4 cells (Homo sapiens, 4-day induction of differentiation), more than 10000 nM.
As for `CC(=C/C(=O)O)/C=C/C=C(C)/C=C1\CCCc2ccccc21` [(13Z)-UAB30, (2E,4E,6E,8E)-8-(3',4'-Dihydro-1'(2'H)-naphthalen-1'-ylidene)3,7-dimethyl-2,4,6-octatrienoic acid], in the assay on JMML cells (setting [16]), the inhibition at 0.1 µM turned out to be 82% and the inhibition at 1 µM is 88%. In addition, in the assay on JMML cells (setting [15]), the inhibition at 0.01 µM came out at 25%, the inhibition at 0.1 µM worked out at 72% and the inhibition at 1 µM was 80%. In the assay on HL-60 cells, the EC50 is more than 10000 nM. In addition, the “binding to the RAR subtypes” value with RARs was “ineffective binder”. Moreover, the EC50 in the assay with NB4 cells (Homo sapiens) was more than 10000 nM.
For `CC1=C(/C=C/C(C)=C\C=C\C(C)=C\C(=O)O)C(C)(C)CCC1` [(9Z)-RA, 9-cis-retinoic acid, reference compound], the inhibition at 0.1 µM was 98% in the assay on JMML cells (read-out: normalized percent inhibition of CFU-GM colony growth, patient J43 (%), 10^-7 M) and 72% with JMML cells (setting [18]). Also, the inhibition at 1 µM stood at 82% with JMML cells (setting [17]) and 95% in the assay with JMML cells (setting [19]). Also, in the assay on NB4 cells (retinoid alone), the “NB4 cell differentiation” value is recorded as “comparable to that of ATRA”. For the same compound, in the assay with mouse skin papilloma [13], the “prevention of papilloma” value is reported as 95%.
For the compound `CC(=C\C=C\C(C)=C\C(=O)O)/C=C1\CCCc2ccccc21` [(all-E)-UAB30, (2E,4E,6E,8E)-8-(3',4'-Dihydro-1'(2'H)-naphthalen-1'-ylidene)3,7-dimethyl-2,4,6-octatrienoic acid], in the assay on JMML cells (setting [16]), the inhibition at 0.1 µM is 68% and the inhibition at 1 µM turned out to be 72%. In the assay on JMML cells (setting [15]), the inhibition at 0.01 µM was 28%, the inhibition at 0.1 µM turned out to be 48% and the inhibition at 1 µM was 57%. Further, the EC50 in the assay on HL-60 cells was more than 10000 nM. Also, the EC50 in the assay on NB4 cells (Homo sapiens) was more than 10000 nM. For the same compound, the “dose up to which not active in NB4 cell differentiation” value with NB4 cells (retinoid alone, 3 days) is more than 40 mM. Further, the “NB4 cell differentiation” value in the assay with NB4 cells (retinoid alone, listed as all-trans-UAB30) is “inactive in NB4 cell differentiation; also recorded: not induce differentiation of NB4 cells”. The “prevention of papilloma” value with mouse skin papilloma [10] was 59%.
Consider `CC1=C(/C=C/C(C)=C/C=C/C(C)=C\C(=O)O)C(C)(C)CCC1` [(13Z)-RA, reference compound], for which the inhibition at 1 µM turned out to be 109% in the assay on JMML cells (read-out: normalized percent inhibition of CFU-GM colony growth, patient J43 (%), 10^-6 M); 94% in the assay with JMML cells (setting [17]); 87% with JMML cells (setting [19]). Moreover, in the assay on JMML cells (setting [18]), the inhibition at 0.1 µM turned out to be 86%. Also, the “share of children in whom excessive myeloproliferation is controlled” value in [14] was “up to 50%”.

Values taken from US6172112A, “Retinoids and use thereof” (priority 1999, dated 2001).
